Measured values taken from patent US8466162B2, “5-alkynyl-pyridines” (Boehringer Ingelheim International GmbH, priority 2011, dated 2013).
Values belong to the molecule of their own block, whether it stands above or below them.

Assays:
U87 cells = test: alamarBlue U87 cell assay (antiproliferative/cytotoxicity); type: cell-based; settings: U-87MG human glioblastoma cells
Summary of the method: (§1)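 After overnight plating of 3000 cells per well, compounds are applied as ten threefold dilutions (highest final 10 μM) in duplicate for 5-6 days. Viability is then gauged by an 8 h alamarBlue incubation and fluorescence readout, with EC50 calculated from medium-blank-corrected signals.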

PI3Kalpha = biological target: T1, PI3Kalpha (Homo sapiens, UniProt P42336); test: Inhibition of PI3Kalpha-induced PIP-2 phosphorylation (filter-binding assay, 33P-ATP); type: biochemical; settings: PI3 Kinase alpha (p85alpha/His-p110alpha), 1 μM ATP; read-out: IC50 PI3Kα
T1 construct: His (N); made in house; host or cells: SF9 insect cells (baculovirus co-infection)

MCF7 cells = test: alamarBlue MCF7 cell assay (antiproliferative/cytotoxicity); type: cell-based; settings: MCF7 human breast cancer cell line
Summary of the method: as §1

BT474 cells = test: alamarBlue BT474 cell assay (antiproliferative/cytotoxicity); type: cell-based; settings: BT-474 human breast cancer cell line, 5-6 days incubation
Summary of the method: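 Following 5-6 days of treatment across a duplicate 1:3 series (10 μM final maximum), wells received alamarBlue for 8 hours at 37° C before fluorescence measurement; EC50 was fitted. For BT474, 3000 cells were plated in IMDM with 5% FCS.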

H460 cells = test: alamarBlue H460 cell assay (antiproliferative/cytotoxicity); type: cell-based; settings: NCI-H460; H460 human lung carcinoma cells
Summary of the method: as §1

MB453 cells = test: alamarBlue MB453 cell assay (antiproliferative/cytotoxicity); type: cell-based; settings: Homo sapiens; MDA MB 453 breast cancer cell line
Summary of the method: as §1

T1 sequence (P27986 whole entry): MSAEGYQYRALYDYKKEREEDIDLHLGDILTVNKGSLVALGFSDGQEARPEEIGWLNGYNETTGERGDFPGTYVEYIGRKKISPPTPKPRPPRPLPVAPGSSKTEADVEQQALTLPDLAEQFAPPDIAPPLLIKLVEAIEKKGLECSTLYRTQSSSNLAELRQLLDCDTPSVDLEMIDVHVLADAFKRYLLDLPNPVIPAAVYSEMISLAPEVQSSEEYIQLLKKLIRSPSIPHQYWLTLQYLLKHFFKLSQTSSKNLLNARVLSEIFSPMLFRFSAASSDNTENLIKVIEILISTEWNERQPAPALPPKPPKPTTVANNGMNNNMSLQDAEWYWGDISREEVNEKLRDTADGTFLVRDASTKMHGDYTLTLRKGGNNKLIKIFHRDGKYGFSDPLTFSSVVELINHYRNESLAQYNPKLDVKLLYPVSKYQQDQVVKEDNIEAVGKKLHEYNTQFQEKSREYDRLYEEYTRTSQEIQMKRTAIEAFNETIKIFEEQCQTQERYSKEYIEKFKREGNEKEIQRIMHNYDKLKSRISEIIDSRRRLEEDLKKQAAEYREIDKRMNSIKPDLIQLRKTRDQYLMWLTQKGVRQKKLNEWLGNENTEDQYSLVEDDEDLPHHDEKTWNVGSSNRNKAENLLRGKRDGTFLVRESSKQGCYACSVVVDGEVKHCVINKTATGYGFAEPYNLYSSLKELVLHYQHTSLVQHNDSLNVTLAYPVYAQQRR
T1 sequence (P42336 whole entry): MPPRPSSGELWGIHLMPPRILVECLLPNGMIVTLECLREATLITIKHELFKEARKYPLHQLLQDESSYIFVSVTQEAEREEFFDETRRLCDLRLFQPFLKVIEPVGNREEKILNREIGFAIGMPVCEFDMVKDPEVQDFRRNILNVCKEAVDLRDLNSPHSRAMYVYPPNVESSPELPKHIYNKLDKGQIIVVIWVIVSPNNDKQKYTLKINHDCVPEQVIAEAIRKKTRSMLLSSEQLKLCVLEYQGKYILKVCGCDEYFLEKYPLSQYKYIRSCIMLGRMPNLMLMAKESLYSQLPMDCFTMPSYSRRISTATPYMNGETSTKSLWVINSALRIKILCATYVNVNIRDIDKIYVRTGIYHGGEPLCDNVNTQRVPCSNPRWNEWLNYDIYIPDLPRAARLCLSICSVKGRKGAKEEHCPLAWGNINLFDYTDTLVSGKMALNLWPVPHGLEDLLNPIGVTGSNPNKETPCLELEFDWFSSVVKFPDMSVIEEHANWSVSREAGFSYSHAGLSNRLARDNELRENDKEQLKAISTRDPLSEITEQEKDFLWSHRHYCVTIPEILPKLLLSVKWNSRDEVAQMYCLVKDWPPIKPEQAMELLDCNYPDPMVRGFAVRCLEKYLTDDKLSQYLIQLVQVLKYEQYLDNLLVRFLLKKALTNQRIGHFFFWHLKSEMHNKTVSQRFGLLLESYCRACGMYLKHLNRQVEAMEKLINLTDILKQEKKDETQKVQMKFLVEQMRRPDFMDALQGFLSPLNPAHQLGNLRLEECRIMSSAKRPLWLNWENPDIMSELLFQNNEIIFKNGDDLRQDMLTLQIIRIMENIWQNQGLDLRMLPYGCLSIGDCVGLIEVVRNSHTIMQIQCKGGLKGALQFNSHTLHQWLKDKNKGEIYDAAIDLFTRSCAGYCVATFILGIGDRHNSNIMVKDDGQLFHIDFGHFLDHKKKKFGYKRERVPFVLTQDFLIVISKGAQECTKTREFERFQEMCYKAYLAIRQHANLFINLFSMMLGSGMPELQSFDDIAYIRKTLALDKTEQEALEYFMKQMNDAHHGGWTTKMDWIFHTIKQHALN

Compound: CCc1ncnc(-c2ccc(CNC(=O)OC(C)(C)C)nc2)c1C#Cc1cnc(C)c(NS(=O)(=O)c2ccc(F)cc2F)c1 [Example 48, (5-{5-[5-(2,4-Difluoro-benzenesulfonylamino)-6-methyl-pyridin-3-ylethynyl]-6-ethyl-pyrimidin-4-yl}-pyridin-2-ylmethyl)-carbamic acid tert-butyl ester]
EC50 (U87 cells): 0.089 µM
IC50 (PI3Kalpha): 0.00042 µM
EC50 (MCF7 cells): 0.003 µM
EC50 (BT474 cells): 0.026 µM
EC50 (H460 cells): 0.063 µM
EC50 (MB453 cells): 0.089 µM

Compound: CCc1ncnc(-c2ccc(CNC(=O)OC(C)(C)C)nc2)c1C#Cc1cnc(C)c(NS(=O)(=O)c2ccccc2C(F)(F)F)c1 [Example 49, (5-{6-Ethyl-5-[6-methyl-5-(2-trifluoromethyl-benzenesulfonylamino)-pyridin-3-ylethynyl]-pyrimidin-4-yl}-pyridin-2-ylmethyl)-carbamic acid tert-butyl ester]
EC50 (U87 cells): 0.241 µM
IC50 (PI3Kalpha): 0.002 µM
EC50 (MCF7 cells): 0.057 µM
EC50 (BT474 cells): 0.207 µM
EC50 (H460 cells): 0.12 µM
EC50 (MB453 cells): 0.169 µM

Compound: CCc1ncnc(-c2ccc(CNC(=O)OC(C)(C)C)nc2)c1C#Cc1cnc(C)c(NS(=O)(=O)c2ccccc2)c1 [Example 50, {5-[5-(5-Benzene-sulfonylamino-6-methyl-pyridin-3-ylethynyl)-6-ethyl-pyrimidin-4-yl]-pyridin-2-ylmethyl}-carbamic acid tert-butyl ester]
EC50 (U87 cells): 0.104 µM
IC50 (PI3Kalpha): 0.00043 µM
EC50 (MCF7 cells): 0.027 µM
EC50 (BT474 cells): 0.102 µM
EC50 (H460 cells): 0.104 µM
EC50 (MB453 cells): 0.115 µM

Compound: CCc1ncnc(-c2ccccc2)c1C#Cc1cnc(C)c(NS(C)(=O)=O)c1 [Example 52, N-[5-(4-Ethyl-6-phenyl-pyrimidin-5-ylethynyl)-2-methyl-pyridin-3-yl]-methanesulfonamide]
EC50 (U87 cells): 1.02 µM
IC50 (PI3Kalpha): 0.003 µM
EC50 (MCF7 cells): 0.154 µM
EC50 (BT474 cells): 0.52 µM
EC50 (H460 cells): 1.21 µM
EC50 (MB453 cells): 0.452 µM

Compound: CCc1ncnc(-c2cccc(C#N)c2)c1C#Cc1cnc(C)c(NS(C)(=O)=O)c1 [Example 55, N-{5-[4-(3-Cyano-phenyl)-6-ethyl-pyrimidin-5-ylethynyl]-2-methyl-pyridin-3-yl}-methanesulfonamide]
EC50 (U87 cells): 0.609 µM
IC50 (PI3Kalpha): 0.003 µM
EC50 (MCF7 cells): 0.126 µM
EC50 (BT474 cells): 0.302 µM
EC50 (H460 cells): 0.945 µM
EC50 (MB453 cells): 0.317 µM

Compound: CCc1ncnc(-c2ccccc2F)c1C#Cc1cnc(C)c(NS(C)(=O)=O)c1 [Example 57, N-{5-[4-Ethyl-6-(2-fluoro-phenyl)-pyrimidin-5-ylethynyl]-2-methyl-pyridin-3-yl}-methanesulfonamide]
EC50 (U87 cells): 2.66 µM
IC50 (PI3Kalpha): 0.008 µM
EC50 (MCF7 cells): 0.541 µM
EC50 (BT474 cells): 1.08 µM
EC50 (H460 cells): 3.14 µM
EC50 (MB453 cells): 1.62 µM

Compound: CCc1ncnc(-c2cccc(F)c2)c1C#Cc1cnc(C)c(NS(C)(=O)=O)c1 [Example 61, N-{5-[4-Ethyl-6-(3-fluoro-phenyl)-pyrimidin-5-ylethynyl]-2-methyl-pyridin-3-yl}-methanesulfonamide]
EC50 (U87 cells): 0.321 µM
IC50 (PI3Kalpha): 0.001 µM
EC50 (MCF7 cells): 0.454 µM
EC50 (BT474 cells): 0.693 µM
EC50 (H460 cells): 0.4 µM
EC50 (MB453 cells): 0.42 µM

Compound: CCc1ncnc(-c2ccccc2OC)c1C#Cc1cnc(C)c(NS(C)(=O)=O)c1 [Example 62, N-{5-[4-Ethyl-6-(2-methoxy-phenyl)-pyrimidin-5-ylethynyl]-2-methyl-pyridin-3-yl}-methanesulfonamide]
EC50 (U87 cells): 25 µM
IC50 (PI3Kalpha): 0.012 µM
EC50 (MCF7 cells): 1.42 µM
EC50 (BT474 cells): ≥ 10 µM
EC50 (H460 cells): 2.76 µM
EC50 (MB453 cells): 2.9 µM

Compound: CCc1ncnc(-c2ccc(F)cc2F)c1C#Cc1cnc(C)c(NS(C)(=O)=O)c1 [Example 63, N-{5-[4-(2,4-Difluoro-phenyl)-6-ethyl-pyrimidin-5-ylethynyl]-2-methyl-pyridin-3-yl}-methanesulfonamide]
EC50 (U87 cells): 1.89 µM
IC50 (PI3Kalpha): 0.004 µM
EC50 (MCF7 cells): 0.734 µM
EC50 (BT474 cells): 1.54 µM
EC50 (H460 cells): 1.11 µM
EC50 (MB453 cells): 1.18 µM

More lines, main results first:

IC50 (PI3Kalpha): 0.002 µM
Compound: CCc1ncnc(-c2cccc(OC(C)C)c2)c1C#Cc1cnc(C)c(NS(C)(=O)=O)c1 [Example 64, N-{5-[4-Ethyl-6-(3-isopropoxy-phenyl)-pyrimidin-5-ylethynyl]-2-methyl-pyridin-3-yl}-methanesulfonamide]
EC50 (U87 cells): 0.888 µM
EC50 (MCF7 cells): 0.309 µM
EC50 (BT474 cells): 0.615 µM
EC50 (H460 cells): 0.606 µM
EC50 (MB453 cells): 0.621 µM

IC50 (PI3Kalpha): 0.02 µM
Compound: CCc1ncnc(-c2cccc(C(F)(F)F)c2F)c1C#Cc1cnc(C)c(NS(C)(=O)=O)c1 [Example 70, N-{5-[4-Ethyl-6-(2-fluoro-3-trifluoromethyl-phenyl)-pyrimidin-5-ylethynyl]-2-methyl-pyridin-3-yl}-methanesulfonamide]
EC50 (U87 cells): 2.35 µM
EC50 (MCF7 cells): 0.374 µM
EC50 (BT474 cells): 1.57 µM
EC50 (H460 cells): 1.18 µM
EC50 (MB453 cells): 1.27 µM

IC50 (PI3Kalpha): 0.009 µM
Compound: CCc1ncnc(-c2ccc(OC)cc2F)c1C#Cc1cnc(C)c(NS(C)(=O)=O)c1 [Example 71, N-{5-[4-Ethyl-6-(2-fluoro-4-methoxy-phenyl)-pyrimidin-5-ylethynyl]-2-methyl-pyridin-3-yl}-methanesulfonamide]
EC50 (U87 cells): 1.3 µM
EC50 (MCF7 cells): 0.389 µM
EC50 (BT474 cells): 1.02 µM
EC50 (H460 cells): 0.683 µM
EC50 (MB453 cells): 0.558 µM

IC50 (PI3Kalpha): 0.008 µM
Compound: CCc1ncnc(-c2ccc(C(=O)N(C)C)cc2F)c1C#Cc1cnc(C)c(NS(C)(=O)=O)c1 [Example 72, 4-[6-Ethyl-5-(5-methanesulfonylamino-6-methyl-pyridin-3-ylethynyl)-pyrimidin-4-yl]-3-fluoro-N,N-dimethyl-benzamide]
EC50 (U87 cells): 1.58 µM
EC50 (MCF7 cells): 0.679 µM
EC50 (BT474 cells): 1.95 µM
EC50 (H460 cells): 3.03 µM
EC50 (MB453 cells): 0.746 µM

IC50 (PI3Kalpha): 0.001 µM
Compound: CCc1ncnc(-c2ccnc(C(C)(C)C)c2)c1C#Cc1cnc(C)c(NS(C)(=O)=O)c1 [Example 75, N-{5-[4-(2-tert-Butyl-pyridin-4-yl)-6-ethyl-pyrimidin-5-ylethynyl]-2-methyl-pyridin-3-yl}-methanesulfonamide]
EC50 (U87 cells): 0.449 µM
EC50 (MCF7 cells): 0.079 µM
EC50 (BT474 cells): 0.169 µM
EC50 (H460 cells): 0.2 µM
EC50 (MB453 cells): 0.143 µM

IC50 (PI3Kalpha): 0.00091 µM
Compound: CCc1ncnc(-c2ccnc(OC)c2)c1C#Cc1cnc(C)c(NS(C)(=O)=O)c1 [Example 76, N-{5-[4-Ethyl-6-(2-methoxy-pyridin-4-yl)-pyrimidin-5-ylethynyl]-2-methyl-pyridin-3-yl}-methanesulfonamide]
EC50 (U87 cells): 0.466 µM
EC50 (MCF7 cells): 0.093 µM
EC50 (BT474 cells): 0.356 µM
EC50 (H460 cells): 0.207 µM
EC50 (MB453 cells): 0.148 µM

IC50 (PI3Kalpha): 0.004 µM
Compound: CCc1ncnc(-c2ccc(CN)cc2)c1C#Cc1cnc(C)c(NS(C)(=O)=O)c1 [Example 78, N-{5-[4-(4-Aminomethyl-phenyl)-6-ethyl-pyrimidin-5-ylethynyl]-2-methyl-pyridin-3-yl}-methanesulfonamide]
EC50 (U87 cells): 0.892 µM
EC50 (MCF7 cells): 0.549 µM
EC50 (BT474 cells): 0.524 µM
EC50 (H460 cells): 2.41 µM
EC50 (MB453 cells): 0.24 µM

IC50 (PI3Kalpha): 0.00065 µM
Compound: CCc1ncnc(-c2ccnc(C)c2)c1C#Cc1cnc(C)c(NS(=O)(=O)c2ccccc2)c1 [Example 83, N-{5-[4-Ethyl-6-(2-methyl-pyridin-4-yl)-pyrimidin-5-ylethynyl]-2-methyl-pyridin-3-yl}-benzenesulfonamide]
EC50 (U87 cells): 0.227 µM
EC50 (MCF7 cells): 0.029 µM
EC50 (BT474 cells): 0.103 µM
EC50 (H460 cells): 0.057 µM
EC50 (MB453 cells): 0.086 µM

IC50 (PI3Kalpha): 0.001 µM
Compound: CCc1ncnc(-c2ccnc(C)c2)c1C#Cc1cnc(C)c(NS(=O)(=O)c2ccc(Cl)cc2)c1 [Example 85, 4-Chloro-N-{5-[4-ethyl-6-(2-methyl-pyridin-4-yl)-pyrimidin-5-ylethynyl]-2-methyl-pyridin-3-yl}-benzenesulfonamide]
EC50 (U87 cells): 0.98 µM
EC50 (MCF7 cells): 0.088 µM
EC50 (BT474 cells): 0.302 µM
EC50 (H460 cells): 0.352 µM
EC50 (MB453 cells): 0.499 µM

IC50 (PI3Kalpha): 0.001 µM
Compound: CCc1ncnc(-c2ccnc(C)c2)c1C#Cc1cnc(C)c(NS(=O)(=O)c2ccc(C)cc2)c1 [Example 86, N-{5-[4-Ethyl-6-(2-methyl-pyridin-4-yl)-pyrimidin-5-ylethynyl]-2-methyl-pyridin-3-yl}-4-methyl-benzenesulfonamide]
EC50 (U87 cells): 0.697 µM
EC50 (MCF7 cells): 0.056 µM
EC50 (BT474 cells): 0.302 µM
EC50 (H460 cells): 0.208 µM
EC50 (MB453 cells): 0.492 µM

IC50 (PI3Kalpha): 0.005 µM
Compound: CCc1ncnc(-c2ccnc(C)c2)c1C#Cc1cnc(C)c(NS(=O)(=O)c2ccc(OC)cc2)c1 [Example 87, N-{5-[4-Ethyl-6-(2-methyl-pyridin-4-yl)-pyrimidin-5-ylethynyl]-2-methyl-pyridin-3-yl}-4-methoxy-benzenesulfonamide]
EC50 (U87 cells): 0.887 µM
EC50 (MCF7 cells): 0.372 µM
EC50 (BT474 cells): 0.381 µM
EC50 (H460 cells): 0.24 µM
EC50 (MB453 cells): 0.505 µM

IC50 (PI3Kalpha): 0.009 µM
Compound: CCc1ccccc1S(=O)(=O)Nc1cc(C#Cc2c(CC)ncnc2-c2ccnc(C)c2)cnc1C [Example 88, 2-Ethyl-N-{5-[4-ethyl-6-(2-methyl-pyridin-4-yl)-pyrimidin-5-ylethynyl]-2-methyl-pyridin-3-yl}-benzenesulfonamide]
EC50 (U87 cells): 0.704 µM
EC50 (MCF7 cells): 0.065 µM
EC50 (BT474 cells): 0.175 µM
EC50 (H460 cells): 0.14 µM
EC50 (MB453 cells): 0.33 µM

IC50 (PI3Kalpha): 0.00088 µM
Compound: CCc1ncnc(-c2ccnc(C)c2)c1C#Cc1cnc(C)c(NS(=O)(=O)c2ccccc2C)c1 [Example 89, N-{5-[4-Ethyl-6-(2-methyl-pyridin-4-yl)-pyrimidin-5-ylethynyl]-2-methyl-pyridin-3-yl}-2-methyl-benzenesulfonamide]
EC50 (U87 cells): 0.827 µM
EC50 (MCF7 cells): 0.05 µM
EC50 (BT474 cells): 0.198 µM
EC50 (H460 cells): 0.319 µM
EC50 (MB453 cells): 0.524 µM
